Experimental data from patent US20260284066A1, “TYK2 INHIBITORS AND COMPOSITIONS AND METHODS THEREOF” (LYNK PHARMACEUTICALS CO. LTD., priority 2023, published 2026).
≈ marks a conversion by molar mass, not a printed value. Like-named read-outs stand apart in the source and are kept apart here.

Key:
JAK1-JH2 domain = target: T1, JAK1-JH2 domain (Homo sapiens, UniProt P23458); test: Binding activity test for JAK1 JH2 domain (Tb-antibody/tracer FRET)
T1 construct: JAK1-JH2 domain or TYK2-JH2 domain enzyme
Method: Binding Activity test for JH2 domain of JAK and TYK2
75 nL DMSO for high control and low control.
For low control, add 5 μL/well assay buffer. […] After enzyme system prepared, add 5 μL of Tb-antibody solution into each wells of assay plate. […] After Tb-antibody added, also add 5 μL of tracer into the assay plate. […] Incubate for 60 mins at 25° C. firstly and then continue to incubate the plate at 4° C. overnight. Read by envision in FRET mode. The Luminescence value was recorded by a multi-label reader Envision (PerkinElmer). Inhibition Rate was calculated relative to vehicle (DMSO) treated control wells using following formula:
wherein • RLU_compound=the relative light unit of cells treated with test compounds • RLU_low control=the relative light unit of medium with DMSO only • RLU_high control=the relative light unit of cells treated with DMSO only

TYK2-JH2 domain = target: T2, TYK2-JH2 domain (Homo sapiens, UniProt P29597); test: Binding activity test for TYK2 JH2 domain (Tb-antibody/tracer FRET); conditions: for JAK1/TYK2 selectivity: ratio of JAK1 JH2 to TYK2 JH2 binding IC50
T2 construct: JAK1-JH2 domain or TYK2-JH2 domain enzyme

[1] = Microsomal metabolic stability assay; assay type: in vitro ADME, human; conditions: human, liver microsomes, pH 7.4, human liver microsomes 0.5 mg/mL; for microsomal CLint at 1 µM: read-out: Human LM Clint; for half-life at 1 µM: read-out: Human LM T½
Method: Microsomal Metabolic Stability Assay
Microsomes were pre-incubated with test compound or control compounds for 5 min at 37° C. in 100 mM potassium phosphate buffer, pH 7.4, 1.0 mM EDTA. The reaction was initiated by addition of 15 μL of the NADPH regenerating system to 30 μL of each incubation mixture per time point. The final incubation condition was composed of 0.5 mg/mL microsomal protein, 1 μM test article/positive control, 2 mM NADPH. The 0-minute samples were prepared by addition of a 30 μL aliquot of each incubation mixture to 135 μL quench reagent to precipitate proteins. And then a 15 μL aliquot of the NADPH regenerating system was added. At 5, 15, 30 and 45 minutes, the reaction will be stopped by the addition of cold acetonitrile solution containing internal standard. The samples taken at all time points were centrifuged at 5000×g for 15 minutes. 50 μL of supernatant are taken into 96-well assay plates pre-added with 50 μL ultrapure water, and then analyzed by LC/MS/MS.
Concentrations of test articles, control compounds in the samples were determined by using LC/MS/MS method. Plotting of the chromatograms and peak area integrations are carried out by Analyst (AB Sciex).
In the determination of the in vitro elimination constant (ke) of the control compounds, the analyte/internal standard peak area ratios will be converted to percentage remaining (% Remaining) with the following equation:
The CLint of microsomes was calculated using the formula: CLint (mic)=0.693/T1/2/mg microsome protein per mL. The slope was measured by the natural logarithm of the percentage of the residual compound and time, T1/2 was calculated according to the following formula.

Kinetic solubility = assay type: physicochemical; conditions: aqueous buffer, 100 mM pH 7.4 phosphate buffer, 1% DMSO, room temperature, read-out: Kinetics Solubility_PBS7.4
Method: Aliquots of 8 μL of reference and test compound stock solutions (10 mM/5 mM) are added into 792 μL of 100 mM pH 7.4 phosphate buffer. The final DMSO concentration is 1%. Sample tubes are shaken for 2 hours at 1000 rpm at room temperature. Samples are centrifuged at 12000 rpm for 10 min to precipitate un-dissolved particles. And transfer the supernatants to a new tube or plate. Add 5 μL of samples (no diluted, 10 times diluted and 100 times diluted) and standard curve samples to 95 μL of ACN containing IS for LC-MS/MS analysis.

[2] = read-out: JAK1 JH2 Binding IC50
[3] = read-out: TYK2 JH2 Binding IC50

T1 sequence (P23458 583-855 limits assumed): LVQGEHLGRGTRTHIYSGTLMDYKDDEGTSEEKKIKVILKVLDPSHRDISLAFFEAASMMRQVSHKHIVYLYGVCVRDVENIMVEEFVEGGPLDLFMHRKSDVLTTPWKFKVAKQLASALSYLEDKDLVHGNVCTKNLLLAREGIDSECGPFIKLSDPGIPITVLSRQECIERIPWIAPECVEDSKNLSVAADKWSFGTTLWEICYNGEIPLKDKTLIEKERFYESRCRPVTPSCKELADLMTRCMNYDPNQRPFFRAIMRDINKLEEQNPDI
T2 sequence (P29597 589-875 limits assumed): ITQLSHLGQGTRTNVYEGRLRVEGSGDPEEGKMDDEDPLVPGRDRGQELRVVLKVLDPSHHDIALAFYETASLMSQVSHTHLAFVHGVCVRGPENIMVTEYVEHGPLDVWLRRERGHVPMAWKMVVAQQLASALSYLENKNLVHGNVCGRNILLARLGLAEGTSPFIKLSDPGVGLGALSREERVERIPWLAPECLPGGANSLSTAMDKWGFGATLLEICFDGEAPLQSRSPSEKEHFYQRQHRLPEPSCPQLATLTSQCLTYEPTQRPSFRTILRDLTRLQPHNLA

SMILES | IC50 (JAK1-JH2 domain; JAK1 JH2 Binding IC50(nM)) | IC50 (TYK2-JH2 domain; TYK2 JH2 Binding IC50(nM)) | JAK1/TYK2 selectivity (TYK2-JH2 domain) | IC50 (JAK1-JH2 domain; [2]) | microsomal CLint at 1 µM [1] | half-life at 1 µM [1] | IC50 (TYK2-JH2 domain; [3]) | solubility kinetic at 2 h (Kinetic solubility)
[2H]C([2H])([2H])NC(=O)c1cnc(NC(=O)C2CC2)cc1Nc1ncc2cnn(COCC[Si](C)(C)C)c2c1OC [Example 1, 6-(Cyclopropanecarboxamido)-4-((7-methoxy-1-((2-(trimethylsilyl)ethoxy)methyl)-1H-pyrazolo[4,3-c]pyridin-6-yl)amino)-N-(methyl-d3)nicotinamide] | > 298 nM | 9.31 nM | >32.07 | – | – | – | – | –
[2H]C([2H])([2H])NC(=O)c1cnc(Nc2ccc(N3CCOCC3)cn2)cc1Nc1ccn2ncc(C#N)c2c1OC [Example 6, 4-((3-Cyano-4-methoxypyrazolo[1,5-a]pyridin-5-yl)amino)-N-(methyl-d3)-6-((5-morpholinopyridin-2-yl)amino)nicotinamide] | – | – | 4.48 | 0.703 nM | 28.4 µL/min/mg | 48.8 min | 0.157 nM | –
[2H]C([2H])([2H])NC(=O)c1cnc(Nc2ccc(N3CCOCC3)cn2)nc1Nc1ccn2ncc(C#N)c2c1OC [Example 7, 4-((3-Cyano-4-methoxypyrazolo[1,5-a]pyridin-5-yl)amino)-N-(methyl-d)-2-((5-morpholinopyridin-2-yl)amino)pyrimidine-5-carboxamide] | – | – | 26.60 | 10.7 nM | 28.1 µL/min/mg | 49.3 min | 0.404 nM | –
[2H]C([2H])([2H])NC(=O)c1cnc(NC(=O)[C@@H]2C[C@@H]2F)cc1Nc1ncc2cnn(CC(C)(F)F)c2c1OC [Example 8, 4-((1-(2,2-Difluoropropyl)-7-methoxy-1H-pyrazolo[4,3-c]pyridin-6-yl)amino)-6-((1S,2S)-2-fluorocyclopropane-1-carboxamido)-N-(methyl-d3)nicotinamide] | – | – | 561.99 | 162 nM | – | – | 0.288 nM | –
[2H]C([2H])([2H])NC(=O)c1cnc(NC(=O)[C@H]2C[C@H]2F)cc1Nc1ncc2cnn(CC(C)(F)F)c2c1OC [Example 11, 4-((1-(2,2-Difluoropropyl)-7-methoxy-1H-pyrazolo[4,3-c]pyridin-6-yl)amino)-6-((1R,2R)-2-fluorocyclopropane-1-carboxamido)-N-(methyl-d3)nicotinamide] | – | – | 227.16 | 73.8 nM | 2.86 µL/min/mg | 485 min | 0.325 nM | –
[2H]C([2H])([2H])NC(=O)c1cnc(Nc2cc(CN3CCOCC3)n(C)n2)cc1Nc1ccc2cnn(CC#N)c2c1OC [Example 12, 4-((1-(Cyanomethyl)-7-methoxy-1H-indazol-6-yl)amino)-N-(methyl-d3)-6-((1-methyl-5-(morpholinomethyl)-1H-pyrazol-3-yl)amino)nicotinamide] | – | – | 8.55 | 1.62 nM | – | – | 0.189 nM | 7.21 µM (≈ 3.85 µg/mL)
[2H]C([2H])([2H])NC(=O)c1cnc(NC(=O)[C@@H]2C[C@@H]2F)cc1Nc1ncn2ncc(C(C)C(F)(F)F)c2c1OC (stereo partly drawn) [Example 13, 6-((1S,2S)-2-fluorocyclopropane-1-carboxamido)-4-((4-methoxy-3-(1,1,1-trifluoropropan-2-yl)pyrazolo[1,5-c]pyrimidin-5-yl)amino)-N-(methyl-d3)nicotinamide] | – | – | >175.38 | > 298 nM | 25.4 µL/min/mg | 54.5 min | 1.7 nM | –
[2H]C([2H])([2H])NC(=O)c1cnc(NC(=O)C2CC2)cc1Nc1ncc2ccn(CC)c2c1OC [Example 18, 6-(Cyclopropanecarboxamido)-4-((1-ethyl-7-methoxy-1H-pyrrolo[3,2-c]pyridin-6-yl)amino)-N-(methyl-d3)nicotinamide] | – | – | 83.55 | 4.09 nM | – | – | 0.049 nM | 41.5 µM (≈ 17.1 µg/mL)
COC(=O)c1cnc(NC(=O)C2CC2)cc1Nc1ncn2ncc(C#N)c2c1OC [Example 19, Methyl 4-((3-cyano-4-methoxypyrazolo[1,5-c]pyrimidin-5-yl)amino)-6-(cyclopropanecarboxamido)nicotinate] | – | – | 13.51 | 22.1 nM | – | – | 1.63 nM | –
[2H]C([2H])([2H])NC(=O)c1cnc(Nc2ccc(F)cn2)cc1Nc1ncc2cnn(CC(C)(F)F)c2c1OC [Example 21, 4-((1-(2,2-Difluoropropyl)-7-methoxy-1H-pyrazolo[4,3-c]pyridin-6-yl)amino)-6-((5-fluoropyridin-2-yl)amino)-N-(methyl-d3)nicotinamide] | – | – | 353.07 | 140 nM | 16.3 µL/min/mg | 84.8 min | 0.396 nM | –
[2H]C([2H])([2H])NC(=O)c1cnc(NC(=O)C2CC2)cc1Nc1ncc2ncn(CC(F)(F)F)c2c1OC [Example 25, 6-(Cyclopropanecarboxamido)-4-((7-methoxy-1-(2,2,2-trifluoroethyl)-1H-imidazo[4,5-c]pyridin-6-yl)amino)-N-(methyl-d3)nicotinamide] | – | – | 268.51 | 46.7 nM | – | – | 0.174 nM | –
COC(=O)c1cnc(NC(=O)C2CC2)cc1Nc1ncc2cnn(CC(C)(F)F)c2c1OC [Example 26, Methyl 6-(cyclopropanecarboxamido)-4-((1-(2,2-difluoropropyl)-7-methoxy-1H-pyrazolo[4,3-c]pyridin-6-yl)amino)nicotinate] | – | – | 443.32 | 115 nM | – | – | 0.26 nM | –
[2H]C([2H])([2H])NC(=O)c1cnc(NC(=O)C2CC2)cc1Nc1ncn2ncc(C(O)C(F)(F)F)c2c1OC (centres unmarked) [Example 30, 6-(Cyclopropanecarboxamido)-4-((4-methoxy-3-(2,2,2-trifluoro-1-hydroxyethyl)pyrazolo[1,5-c]pyrimidin-5-yl)amino)-N-(methyl-d3)nicotinamide] | – | – | 822.4 | 110 nM | – | – | 0.134 nM | –
[2H]C([2H])([2H])NC(=O)c1cnc(NC(=O)C2CC2)cc1Nc1ccc2ncn(CC(C)(F)F)c2c1OC [Example 31, 6-(Cyclopropanecarboxamido)-4-((1-(2,2-difluoropropyl)-7-methoxy-1H-benzo[d]imidazol-6-yl)amino)-N-(methyl-d3)nicotinamide] | – | – | 69.3 | 20.8 nM | – | – | 0.3 nM | –
[2H]C([2H])([2H])NC(=O)c1cnc(NC(=O)NCC)cc1Nc1ncc2cnn(CC(C)(F)F)c2c1OC [Example 32, 4-((1-(2,2-Difluoropropyl)-7-methoxy-1H-pyrazolo[4,3-c]pyridin-6-yl)amino)-6-(3-ethylureido)-N-(methyl-d3)nicotinamide] | – | – | >175.4 | > 298 nM | – | – | 1.7 nM | –
[2H]C([2H])([2H])NC(=O)c1cnc(NC(=O)NC)cc1Nc1ncc2cnn(CC(C)(F)F)c2c1OC [Example 33, 4-((1-(2,2-Difluoropropyl)-7-methoxy-1H-pyrazolo[4,3-c]pyridin-6-yl)amino)-N-(methyl-d3)-6-(3-methylureido)nicotinamide] | – | – | >139.8 | > 298 nM | – | – | 2.14 nM | –
CCC(=O)c1cnc(NC(=O)C2CC2)cc1Nc1ccc2cn[nH]c2c1OC [Example 34, N-(4-((7-methoxy-1H-indazol-6-yl)amino)-5-propionylpyridin-2-yl)cyclopropanecarboxamide] | – | – | 8.0 | 31.7 nM | 480 µL/min/mg | 2.89 min | 3.94 nM | –
